Values of other authors, collected in article PMC9851200, “Multiparameter phenotypic screening for endogenous TFEB and TFE3 translocation identifies novel chemical series modulating lysosome function” (Autophagy, 2022).

Key:
Parameters in all cases: method as in original PKIS2 published data
[1] = molecular target: T1, kinases (KINOMEscan panel) (Homo sapiens, UniProt P25098); conditions: Published KINOMEscan; ref original PKIS2 published data; cited from earlier work
T1 sequence (P25098 1-689): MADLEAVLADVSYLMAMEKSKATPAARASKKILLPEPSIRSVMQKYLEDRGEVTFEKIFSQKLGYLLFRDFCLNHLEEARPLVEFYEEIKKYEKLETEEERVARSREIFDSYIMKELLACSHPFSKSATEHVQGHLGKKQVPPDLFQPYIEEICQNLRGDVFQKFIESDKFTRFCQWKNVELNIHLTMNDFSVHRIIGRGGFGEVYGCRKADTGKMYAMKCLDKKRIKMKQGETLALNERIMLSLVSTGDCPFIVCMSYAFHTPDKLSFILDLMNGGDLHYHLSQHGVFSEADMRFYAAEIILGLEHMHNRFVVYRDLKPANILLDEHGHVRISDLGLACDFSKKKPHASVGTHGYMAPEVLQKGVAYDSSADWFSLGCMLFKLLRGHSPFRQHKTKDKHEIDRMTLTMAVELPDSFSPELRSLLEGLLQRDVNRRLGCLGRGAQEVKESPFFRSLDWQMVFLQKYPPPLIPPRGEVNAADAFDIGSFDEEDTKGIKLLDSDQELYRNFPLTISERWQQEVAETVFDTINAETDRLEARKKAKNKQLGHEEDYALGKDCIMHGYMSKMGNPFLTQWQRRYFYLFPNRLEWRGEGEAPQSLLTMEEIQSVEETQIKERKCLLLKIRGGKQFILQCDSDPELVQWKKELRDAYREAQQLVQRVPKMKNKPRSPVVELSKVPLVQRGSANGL

[2] = molecular target: kinases (KINOMEscan panel) (Homo sapiens, UniProt Q05655); conditions: kinase PRKCD; Published KINOMEscan; ref original PKIS2 published data; cited from earlier work
[3] = molecular target: T2, kinases (KINOMEscan panel) (Homo sapiens, UniProt Q13873); conditions: kinase BMPR2; Published KINOMEscan; ref original PKIS2 published data; cited from earlier work
T2 sequence (Q13873 27-1038): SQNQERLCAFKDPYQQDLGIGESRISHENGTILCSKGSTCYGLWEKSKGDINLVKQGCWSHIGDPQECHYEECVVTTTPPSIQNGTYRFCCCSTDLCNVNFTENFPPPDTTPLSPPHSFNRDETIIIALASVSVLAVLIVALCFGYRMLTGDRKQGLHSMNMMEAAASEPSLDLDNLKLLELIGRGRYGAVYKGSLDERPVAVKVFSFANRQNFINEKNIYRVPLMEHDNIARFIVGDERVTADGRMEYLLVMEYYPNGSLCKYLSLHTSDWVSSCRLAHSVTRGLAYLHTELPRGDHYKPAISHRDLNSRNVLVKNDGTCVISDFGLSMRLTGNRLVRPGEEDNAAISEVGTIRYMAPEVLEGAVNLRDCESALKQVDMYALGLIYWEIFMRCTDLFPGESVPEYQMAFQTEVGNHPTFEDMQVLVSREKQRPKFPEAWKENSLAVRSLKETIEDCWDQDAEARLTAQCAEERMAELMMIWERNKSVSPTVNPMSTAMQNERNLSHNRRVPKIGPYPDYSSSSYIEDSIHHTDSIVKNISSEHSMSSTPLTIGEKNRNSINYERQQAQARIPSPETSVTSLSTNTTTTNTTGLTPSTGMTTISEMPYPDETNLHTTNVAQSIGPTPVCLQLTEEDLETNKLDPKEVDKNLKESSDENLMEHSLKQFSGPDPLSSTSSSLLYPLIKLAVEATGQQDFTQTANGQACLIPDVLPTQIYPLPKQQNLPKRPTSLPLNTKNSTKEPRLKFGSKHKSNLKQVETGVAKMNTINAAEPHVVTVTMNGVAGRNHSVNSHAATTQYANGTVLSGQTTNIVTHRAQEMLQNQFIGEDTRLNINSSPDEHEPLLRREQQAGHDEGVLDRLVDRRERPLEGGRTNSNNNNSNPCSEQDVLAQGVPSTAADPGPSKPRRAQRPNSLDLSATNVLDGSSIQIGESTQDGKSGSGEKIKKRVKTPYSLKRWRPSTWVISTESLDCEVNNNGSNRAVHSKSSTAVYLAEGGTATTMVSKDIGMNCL

[4] = molecular target: kinases (KINOMEscan panel) (Homo sapiens, UniProt Q9BYT3); conditions: kinase STK33; Published KINOMEscan; ref original PKIS2 published data; cited from earlier work
Sequence of kinases (KINOMEscan panel) (Homo sapiens, UniProt Q9BYT3) (Q9BYT3 whole entry): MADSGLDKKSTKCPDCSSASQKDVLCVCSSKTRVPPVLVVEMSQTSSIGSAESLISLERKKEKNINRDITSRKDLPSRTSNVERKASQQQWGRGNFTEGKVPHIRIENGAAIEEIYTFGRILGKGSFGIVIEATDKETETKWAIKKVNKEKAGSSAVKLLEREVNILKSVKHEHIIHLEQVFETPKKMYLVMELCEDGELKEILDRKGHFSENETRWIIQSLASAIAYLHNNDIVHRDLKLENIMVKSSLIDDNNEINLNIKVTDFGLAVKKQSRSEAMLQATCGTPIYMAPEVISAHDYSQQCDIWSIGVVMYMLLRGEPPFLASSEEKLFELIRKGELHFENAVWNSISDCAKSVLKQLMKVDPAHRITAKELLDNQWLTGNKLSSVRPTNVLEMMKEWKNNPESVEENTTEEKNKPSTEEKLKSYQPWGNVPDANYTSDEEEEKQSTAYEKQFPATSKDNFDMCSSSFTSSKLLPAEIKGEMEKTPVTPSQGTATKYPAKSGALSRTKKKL

Sequence of kinases (KINOMEscan panel) (Homo sapiens, UniProt Q05655) (Q05655 whole entry): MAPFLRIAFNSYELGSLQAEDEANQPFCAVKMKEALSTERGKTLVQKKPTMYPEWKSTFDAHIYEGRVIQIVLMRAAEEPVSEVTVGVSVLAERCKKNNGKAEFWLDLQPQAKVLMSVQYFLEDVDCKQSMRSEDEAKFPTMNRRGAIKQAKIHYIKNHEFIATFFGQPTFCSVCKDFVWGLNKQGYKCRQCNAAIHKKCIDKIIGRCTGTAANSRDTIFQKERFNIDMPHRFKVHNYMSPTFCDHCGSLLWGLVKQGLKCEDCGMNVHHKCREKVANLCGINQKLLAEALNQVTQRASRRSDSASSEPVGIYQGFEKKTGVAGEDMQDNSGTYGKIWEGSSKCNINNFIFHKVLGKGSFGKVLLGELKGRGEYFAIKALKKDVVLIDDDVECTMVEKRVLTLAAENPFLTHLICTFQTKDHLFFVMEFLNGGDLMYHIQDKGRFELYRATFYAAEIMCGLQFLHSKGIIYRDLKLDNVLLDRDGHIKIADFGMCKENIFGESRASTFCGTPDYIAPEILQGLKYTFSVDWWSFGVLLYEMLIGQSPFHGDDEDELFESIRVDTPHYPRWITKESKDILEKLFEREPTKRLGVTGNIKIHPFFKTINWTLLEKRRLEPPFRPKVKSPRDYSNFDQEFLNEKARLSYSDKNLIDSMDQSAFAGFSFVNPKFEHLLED

## Cc1cccc(-c2nc(Nc3ccncc3)c3ccccc3n2)n1 [NK215]
[1]
  KINOMEscan GRK2: 0
[2]
  KINOMEscan PRKCD: 29
[3]
  KINOMEscan BMPR2: 0
[4]
  KINOMEscan STK33: 2
